Laboratory results reported in patent US11865098B1, “Methods and compositions for treating excessive sleepiness” (Axsome Malta Ltd., priority 2017, dated 2024).

How the values were obtained:
Assay type in all cases: in vivo, human
[1] = tested on: adult patients with OSA and ES; test: FOSQ-10, 12-week parallel study in OSA
Experimental: The study was a 12-week, double-blind, placebo-controlled, parallel design study as described in greater detail in Example 1 (Schweitzer et al., Sleep 40(Abstract Supplement):A237. Abstract 0641 (2017)). Patients were randomized (1:1:2:2:2) to APC 37.5, 75, 150, 300 mg, or placebo for 12 weeks, and were stratified by adherence or non-adherence with primary OSA therapy (adherent definition was use for ≥4 hours per night on >70% of nights). Two patient-reported measures were included as secondary efficacy outcomes to evaluate the effects of APC on functional status and work productivity and activity impairment at baseline and weeks 1, 4, 8, and 12. The Functional Outcomes of Sleep questionnaire short version (FOSQ-10) (Chasens et al., Sleep 32(7):915 (2009)) evaluated the effects of ES on functioning. The Work Productivity and Activity Impairment questionnaire for Specific Health Problems (WPAI:SHP) (Reilly et al., Pharmacoeconomics 4(5):353 (1993); Reilly, Work Productivity and Activity Impairment Questionnaire: Specific Health Problem V2.0 (WPAI: SHP). www.reillyassociates.net/WPAI_SHP) evaluated work productivity impairment among employed patients and overall activity impairment outside of work among all patients for the past 7 days. Four outcomes are available from the WPAI:SHP: Absenteeism (percent work time missed due to health); Presenteeism (percent impairment while working due to health); Percent overall work impairment (calculated from absenteeism and presenteeism); and Percent activity impairment due to health. The FOSQ-10 was evaluated as change over time compared with placebo (least squares (LS) mean); the 4 WPAI outcomes were evaluated at week 12 compared to placebo. Efficacy analyses were based on the modified intent-to-treat population (mITT) and there was no multiplicity adjustment for the FOSQ-10 or WPAI:SHP. Safety and tolerability were assessed based on treatment-emergent adverse events (TEAEs), vital signs, electrocardiogram test, physical exams, Columbia-Suicide Severity Rating Scale, and laboratory tests in the safety population.

[2] = tested on: adult patients with OSA and ES; test: ESS, 12-week placebo-controlled parallel study in OSA; conditions: 37.5, 75, 150, 300 mg; week 12
Experimental: The ESS is a subjective sleepiness test that is well known in the art and routinely used to measure the sleepiness level of a subject. The scale is intended to measure daytime sleepiness through the use of a short questionnaire that asks the subject to rate his or her probability of falling asleep on a scale of increasing probability from 0 to 3 for eight different situations that most people engage in during their daily lives. The scores for the eight questions are added together to obtain a single number that estimates the subject's average sleep propensity (ASP). […]
The study was a 12-week, double-blind, placebo-controlled, parallel design study as described in greater detail in Example 1 (Schweitzer et al., Sleep 40(Abstract Supplement):A237. Abstract 0641 (2017)). […] The Functional Outcomes of Sleep questionnaire short version (FOSQ-10) (Chasens et al., Sleep 32(7):915 (2009)) evaluated the effects of ES on functioning. The Work Productivity and Activity Impairment questionnaire for Specific Health Problems (WPAI:SHP) (Reilly et al., Pharmacoeconomics 4(5):353 (1993); Reilly, Work Productivity and Activity Impairment Questionnaire: Specific Health Problem V2.0 (WPAI: SHP). www.reillyassociates.net/WPAI_SHP) evaluated work productivity impairment among employed patients and overall activity impairment outside of work among all patients for the past 7 days. […]

[3] = tested on: adult patients with OSA and ES; test: EQ-5D-5L, 12-week parallel study in OSA; conditions: week 12
Experimental: This was a 12-week, double-blind, placebo-controlled, parallel-design study. Patients were randomized (1:1:2:2:2) to APC 37.5 mg, 75 mg, 150 mg, or 300 mg, or placebo for 12 weeks, and were stratified by adherence or nonadherence with primary OSA therapy.
The SF-36 v2 consists of 2 summary scales (Physical Component Summary and Mental Component Summary) and 8 specific health status domains (Physical Function, Role Physical, Bodily Pain, General Health, Vitality, Social Functioning, Role Emotional, Mental Health) (Ware Jr et al., User's Manual for the SF-36v2™ Health Survey (2nd ed). QualityMetric Incorporated (Lincoln, RI); 2007). […]
Efficacy analyses were based on the modified intent-to-treat (mITT) population; there was no multiplicity adjustment for the SF-36 v2 or EQ-5D-5L. SF-36 v2 scores were scaled from 0 to 100 (higher scores on all scales represent better health), transformed to norm-based scores using US general-population data from SF-36 Manuals (Ware Jr et al., User's Manual for the SF-36v2™ Health Survey (2nd ed.). QualityMetric Incorporated (Lincoln, RI); 2007), and were analyzed using a mixed-effect model with repeated measures (MMRM); and baseline value of the efficacy endpoint was used to determine differences in changes from baseline. EQ-5D-5L VAS and index-score data were analyzed using an MMRM model. […]

NC(=O)OC[C@H](N)Cc1ccccc1 [JZP-110, (R)-2-amino-3-phenylpropyl carbamate]
FOSQ-10 scores at week 12 ([1]; 37.5 to 300 mg, mITT): dose dependently increased FOSQ-10 scores | FOSQ-10, time at which improvements were observed ([1]; 150 and 300 mg doses): as early as week 1 | FOSQ-10 scores at week 12, effect relative to placebo ([1]; 150 and 300 mg doses): statistically significant effects | Co-primary ESS endpoint [2]: met at all doses | EQ-5D-5L index value, effect [3]: no significant effects | EQ-5D VAS, effect vs placebo ([3]; appeared dose dependent): not significantly different from placebo
